Measured values reported in patent US8673938B2, “Chemical compounds” (priority 2006, dated 2014).

Target: human 11βHSD1 enzyme (Homo sapiens (Human), UniProt P28845)
Assay: biochemical
Settings: read-out: % inhibition of human 11-βHSD

Chain of human 11βHSD1 enzyme (P28845 whole entry): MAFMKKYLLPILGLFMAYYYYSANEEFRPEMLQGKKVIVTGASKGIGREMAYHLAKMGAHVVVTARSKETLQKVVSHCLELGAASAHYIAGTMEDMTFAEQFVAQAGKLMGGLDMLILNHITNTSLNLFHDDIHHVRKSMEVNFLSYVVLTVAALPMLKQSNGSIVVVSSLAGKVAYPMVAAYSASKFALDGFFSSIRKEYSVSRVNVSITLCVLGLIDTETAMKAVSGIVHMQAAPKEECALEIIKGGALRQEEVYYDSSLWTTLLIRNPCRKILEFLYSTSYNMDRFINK

**Q.** `CCCSc1nc(Sc2ccc(CC(=O)O)cc2)ccc1C(=O)NC1CCCCC1` [Example 22, 2-[4-[5-(cyclohexylcarbamoyl)-6-propylsulfanyl-pyridin-2-yl]sulfanylphenyl]acetic acid] was tested. Which inhibition at 30 µM did it give?
**A.** The inhibition at 30 µM was 65%.

**Q.** `O=C(O)C[C@H]1CCN(c2ccc(C(=O)NC3CCCCC3)c(SC3CCCCC3)n2)C1` [Example 57, 2-[(3R)-1-[5-(cyclohexylcarbamoyl)-6-cyclohexylsulfanyl-pyridin-2-yl]pyrrolidin-3-yl]acetic acid] was tested. Which inhibition at 30 µM did it give?
**A.** Its inhibition at 30 µM is 97%.

**Q.** How did the inhibition at 30 µM turn out when `CCCSc1nc(N2CC(OCC(=O)O)C2)ccc1C(=O)NC1CCCCC1` [Example 40, 2-[1-[5-(cyclohexylcarbamoyl)-6-propylsulfanyl-pyridin-2-yl]azetidin-3-yl]oxyacetic acid] was run?
**A.** The inhibition at 30 µM was 87%.

**Q.** How did the inhibition at 30 µM turn out when `CCCSc1nc(N2CCC[C@@H](CC(=O)O)C2)c(F)cc1C(=O)NC1CCCCC1` [Example 186, (S)-2-(1-(5-(Cyclohexylcarbamoyl)-3-fluoro-6-(propylthio)pyridin-2-yl)piperidin-3-yl)acetic acid] was run?
**A.** Its inhibition at 30 µM is 104%.

**Q.** How did the inhibition at 30 µM turn out when `CCCSc1nc(N2CCCC(C)(C(=O)O)C2)ccc1C(=O)NC1CCCCC1` (stereo not shown) [Example 47, 1-[5-(cyclohexylcarbamoyl)-6-propylsulfanyl-pyridin-2-yl]-3-methyl-piperidine-3-carboxylic acid] was run?
**A.** The inhibition at 30 µM was 90%.

**Q.** How did the inhibition at 30 µM turn out when `CCCSc1nc(N2CCC[C@H](CC(=O)O)C2)c(F)cc1C(=O)NC1CCCCC1` [Example 187, (R)-2-(1-(5-(Cyclohexylcarbamoyl)-3-fluoro-6-(propylthio)pyridin-2-yl)piperidin-3-yl)acetic acid] was run?
**A.** Its inhibition at 30 µM is 90%.

**Q.** How did the inhibition at 30 µM turn out when `CCCSc1nc(N2CCC[C@@H](CC(=O)O)C2)ccc1C(=O)N[C@H]1C2CC3CC1C[C@@](S(C)(=O)=O)(C3)C2` [Example 126b, 2-[(3S)-1-[5-[((2r,5s)-5-methylsulfonyl-2-adamantyl)carbamoyl]-6-propylsulfanyl-pyridin-2-yl]-3-piperidyl]acetic acid] was run?
**A.** The inhibition at 30 µM was 99%.

**Q.** Which inhibition at 30 µM does the source give for `CCCSc1nc(N2CCC[C@H](CC(=O)O)C2)ccc1C(=O)N[C@H]1C2CC3CC1C[C@@](O)(C3)C2` [Example 85, 2-[(3R)-1-[5-[[(2r,5s)-5-hydroxy-2-adamantyl]carbamoyl)-6-propylsulfanyl-pyridin-2-yl]-3-piperidyl]acetic acid] here?
**A.** The inhibition at 30 µM was 89%.

**Q.** Which inhibition at 30 µM does the source give for `CCCSc1nc(N2CCC[C@@H](CC(=O)O)C2)ccc1C(=O)NC12CC3CC(CC(C3)C1)C2` [Example 172, {(3S)-1-[5-(Adamantan-1-ylcarbamoyl)-6-(Propylthio)pyridin-2-yl]piperidin-3-yl}acetic acid] here?
**A.** Its inhibition at 30 µM is 88%.

**Q.** Which inhibition at 30 µM does the source give for `CCCSc1nc(N2CCC[C@@H](CC(=O)O)C2)ccc1C(=O)N(C)[C@H]1C2CC3CC1C[C@](OC)(C3)C2` [Example 170, [(3S)-1-[5-[((2r,5s)-5-Methoxyadamantan-2-yl)(methyl)carbamoyl]-6-(propylthio)pyridin-2-yl]piperidin-3-yl]acetic acid] here?
**A.** Its inhibition at 30 µM is 92%.

**Q.** For `CCCOc1nc(N2CCC[C@@H](CC(=O)O)C2)ccc1C(=O)N[C@H]1C2CC3CC1C[C@@](O)(C3)C2` [Example 109, 2-[(3S)-1-[5-[[(2r,5s)-5-hydroxy-2-adamantyl]carbamoyl]-6-propoxy-pyridin-2-yl]-3-piperidyl]acetic acid], which inhibition at 30 µM is on record?
**A.** Its inhibition at 30 µM is 88%.

**Q.** `CCCSc1nc(Oc2cccc(CC(=O)O)c2)ccc1C(=O)NC1CCCCC1` [Example 23, 2-[3-[5-(cyclohexylcarbamoyl)-6-propylsulfanyl-pyridin-2-yl]oxyphenyl]acetic acid] was tested. Which inhibition at 30 µM did it give?
**A.** The inhibition at 30 µM was 78%.

**Q.** `O=C(N[C@H]1C2CC3CC1C[C@](O)(C3)C2)c1ccc(N2CC[C@@H](C(=O)O)C2)nc1SC1CCCCC1` [Example 102, (3R)-1-[6-cyclohexylsulfanyl-5-[((2r,5s)-5-hydroxy-2-adamantyl)carbamoyl]pyridin-2-yl]pyrrolidine-3-carboxylic acid] was tested. Which inhibition at 30 µM did it give?
**A.** Its inhibition at 30 µM is 89%.

**Q.** How did the inhibition at 30 µM turn out when `O=C(O)C[C@@H]1CCN(c2ccc(C(=O)NC3C4CC5CC3CC(O)(C5)C4)c(SC3CCCC3)n2)C1` (stereo partly drawn) [Example 93, 2-[(3S)-1-[6-cyclopentylsulfanyl-5-[((2r,5s)-5-hydroxy-2-adamantyl)carbamoyl]pyridin-2-yl]pyrrolidin-3-yl]acetic acid] was run?
**A.** Its inhibition at 30 µM is 85%.

**Q.** With `O=C(O)C[C@@H]1CCCN(c2ccc(C(=O)NC3CCCCC3)c(SC3CCCC3)n2)C1` [Example 52, 2-[(3S)-1-[5-(cyclohexylcarbamoyl)-6-cyclopentylsulfanyl-pyridin-2-yl]-3-piperidyl]acetic acid] as the molecule, how does the inhibition at 30 µM read?
**A.** The inhibition at 30 µM was 92%.

**Q.** With `CCCOc1nc(N2CCC[C@@H](CC(=O)O)C2)ccc1C(=O)N[C@H]1C2CC3CC1C[C@](OC(F)F)(C3)C2` [Example 181, 2-[(3S)-1-[5-[[(2r,5s)-5-(Difluoromethoxy)-2-adamantyl]carbamoyl]-6-propoxy-pyridin-2-yl]-3-piperidyl]acetic acid] as the molecule, how does the inhibition at 30 µM read?
**A.** Its inhibition at 30 µM is 93%.

**Q.** Which inhibition at 30 µM does the source give for `CCCOc1nc(N2CCCC(C(C)(C)C(=O)O)C2)ccc1C(=O)N[C@H]1C2CC3CC1C[C@](O)(C3)C2` (stereo partly shown) [Example 110, 2-[1-[5-[((2r,5s)-5-hydroxy-2-adamantyl)carbamoyl]-6-propoxy-pyridin-2-yl]-3-piperidyl]-2-methyl-propanoic acid] here?
**A.** The inhibition at 30 µM was 95%.

**Q.** How did the inhibition at 30 µM turn out when `O=C(O)C[C@@H]1CCN(c2ccc(C(=O)N[C@H]3C4CC5CC3C[C@](OC(F)F)(C5)C4)c(SC3CCCCC3)n2)C1` [Example 175, 2-[(3S)-1-[6-Cyclohexylsulfanyl-5-[[(2r,5s)-5-(difluoromethoxy)-2-adamantyl]carbamoyl]pyridin-2-yl]pyrrolidin-3-yl]acetic acid] was run?
**A.** Its inhibition at 30 µM is 91%.

**Q.** `CCCSc1nc(N2CCC[C@@H](CC(=O)O)C2)ccc1C(=O)N(C)[C@H]1C2CC3CC1C[C@](O)(C3)C2` [Example 171, [(3S)-1-{5-[((2r,5s)-5-Hydroxyadamantan-2-yl)(methyl)carbamoyl]-6-(propylthio)pyridin-2-yl}piperidin-3-yl]acetic acid] was tested. Which inhibition at 30 µM did it give?
**A.** The inhibition at 30 µM was 97%.

**Q.** `CSc1nc(N2CC[C@H](CC(=O)O)C2)ccc1C(=O)NC1C2CC3CC(C2)CC1C3` (stereo partly drawn) [Example 76, 2-[(3R)-1-[5-(2-adamantylcarbamoyl)-6-methylsulfanyl-pyridin-2-yl]pyrrolidin-3-yl]acetic acid] was tested. Which inhibition at 30 µM did it give?
**A.** Its inhibition at 30 µM is 87%.

**Q.** With `CCCSc1nc(N2CCC[C@@H](CC(=O)O)C2)ccc1C(=O)N1CCC(c2ccccn2)C1` (stereo partly drawn) [Example 114, 2-[(3S)-1-[6-propylsulfanyl-5-(3-pyridin-2-ylpyrrolidine-1-carbonyl)pyridin-2-yl]-3-piperidyl]acetic acid] as the molecule, how does the inhibition at 30 µM read?
**A.** The inhibition at 30 µM was 101%.

**Q.** With `CCSc1nc(N2CC[C@H](CC(=O)O)C2)ccc1C(=O)NC1C2CC3CC(C2)CC1C3` (stereo partly drawn) [Example 73, 2-[(3R)-1-[5-(2-adamantylcarbamoyl)-6-ethylsulfanyl-pyridin-2-yl]pyrrolidin-3-yl]acetic acid] as the molecule, how does the inhibition at 30 µM read?
**A.** The inhibition at 30 µM was 92%.

**Q.** Which inhibition at 30 µM does the source give for `CCCSc1nc(N2CCC[C@@H](CC(=O)O)C2)ccc1C(=O)N1CCC(c2cccnc2)C1` (stereo partly drawn) [Example 113, 2-[(3S)-1-[6-propylsulfanyl-5-(3-pyridin-3-ylpyrrolidine-1-carbonyl)pyridin-2-yl]-3-piperidyl]acetic acid] here?
**A.** The inhibition at 30 µM was 90%.

**Q.** `CCCSc1nc(N2CC[C@H](C(=O)O)C2)ccc1C(=O)NC1C2CC3CC(C2)CC1C3` (stereo partly drawn) [Example 67, (3S)-1-[5-(2-adamantylcarbamoyl)-6-propylsulfanyl-pyridin-2-yl]pyrrolidine-3-carboxylic acid] was tested. Which inhibition at 30 µM did it give?
**A.** The inhibition at 30 µM was 88%.

**Q.** Which inhibition at 30 µM does the source give for `CCCCc1nc(N2CC3C(C2)C3C(=O)O)ccc1C(=O)NC1C2CC3CC(C2)CC1C3` (stereo not shown) [Example 163, 3-[5-(2-adamantylcarbamoyl)-6-butyl-pyridin-2-yl]-3-azabicyclo[3.1.0]hexane-6-carboxylic acid] here?
**A.** Its inhibition at 30 µM is 93%.

**Q.** With `CCCSc1nc(N(C)[C@H]2CC[C@H](C(=O)O)CC2)ccc1C(=O)NC1CCCCC1` [Example 11, 4-[[5-(cyclohexylcarbamoyl)-6-propylsulfanyl-pyridin-2-yl]-methyl-amino]cyclohexane-1-carboxylic acid] as the molecule, how does the inhibition at 30 µM read?
**A.** Its inhibition at 30 µM is 83%.

**Q.** For `CCCSc1nc(N2CCC(C(C)C(=O)O)CC2)ccc1C(=O)NC1CCCCC1` (stereo not shown) [Example 28, 2-[1-[5-(cyclohexylcarbamoyl)-6-propylsulfanyl-pyridin-2-yl]-4-piperidyl]propanoic acid], which inhibition at 30 µM is on record?
**A.** The inhibition at 30 µM was 86%.

**Q.** With `O=C(O)C[C@@H]1CCCN(c2ccc(C(=O)NC3CCCCC3)c(NCCc3ccc(Cl)cc3)n2)C1` [compound 142, 2-[(3S)-1-[6-[2-(4-chlorophenyl)ethylamino]-5-(cyclohexylcarbamoyl)pyridin-2-yl]-3-piperidyl]acetic acid] as the molecule, how does the inhibition at 30 µM read?
**A.** Its inhibition at 30 µM is 94%.

**Q.** How did the inhibition at 30 µM turn out when `CCCSc1nc(N2CCC[C@H]2C(=O)O)ccc1C(=O)NC1C2CC3CC(C2)CC1C3` (stereo partly drawn) [Example 65, (2S)-1-[5-(2-adamantylcarbamoyl)-6-propylsulfanyl-pyridin-2-yl]pyrrolidine-2-carboxylic acid] was run?
**A.** The inhibition at 30 µM was 89%.

**Q.** For `CCCSc1nc(N2CCC(C(C)(C)C(=O)O)CC2)ccc1C(=O)NC1CCCCC1` [Example 48, 2-[1-[5-(cyclohexylcarbamoyl)-6-propylsulfanyl-pyridin-2-yl]-4-piperidyl]-2-methyl-propanoic acid], which inhibition at 30 µM is on record?
**A.** Its inhibition at 30 µM is 75%.

**Q.** For `O=C(O)C[C@@H]1CCCN(c2ccc(C(=O)NC3CCCCC3)c(N3CCN(c4ccccc4)CC3)n2)C1` [compound 145, 2-[(3S)-1-[5-(cyclohexylcarbamoyl)-6-(4-phenylpiperazin-1-yl)pyridin-2-yl]-3-piperidyl]acetic acid], which inhibition at 30 µM is on record?
**A.** Its inhibition at 30 µM is 84%.

**Q.** With `CCCSc1nc(N2CCC[C@@H](CC(=O)O)C2)ccc1C(=O)NC1C2CC3CC(C2)CC1C3` (stereo partly drawn) [Example 59, 2-[(3S)-1-[5-(2-adamantylcarbamoyl)-6-propylsulfanyl-pyridin-2-yl]-3-piperidyl]acetic acid] as the molecule, how does the inhibition at 30 µM read?
**A.** The inhibition at 30 µM was 94%.

**Q.** Which inhibition at 30 µM does the source give for `O=C(O)CO[C@H]1CCN(c2ccc(C(=O)NC3C4CC5CC(C4)CC3C5)c(SC3CCCC3)n2)C1` (stereo partly drawn) [Example 69, 2-[(3S)-1-[5-(2-adamantylcarbamoyl)-6-cyclopentylsulfanyl-pyridin-2-yl]pyrrolidin-3-yl]oxyacetic acid] here?
**A.** Its inhibition at 30 µM is 91%.

**Q.** With `O=C(O)C[C@@H]1CCCN(c2ccc(C(=O)N[C@H]3C4CC5CC3C[C@](OC(F)F)(C5)C4)c(SC3CCCCC3)n2)C1` [Example 176, 2-[(3S)-1-[6-Cyclohexylsulfanyl-5-[[(2r,5s)-5-(difluoromethoxy)-2-adamantyl]carbamoyl]pyridin-2-yl]-3-piperidyl]acetic acid] as the molecule, how does the inhibition at 30 µM read?
**A.** Its inhibition at 30 µM is 92%.
